Reference: ChEMBL document CHEMBL1155022, “Aerucyclamides A and B: isolation and synthesis of toxic ribosomal heterocyclic peptides from the cyanobacterium Microcystis aeruginosa PCC 7806” (J Nat Prod, 2008)

Experiment: Acute grazer toxicity against Thamnocephalus platyurus after 24 hrs
Format: organism-based
Conditions: in vivo

SMILES	LC50 at 24 h [µM]
CC[C@H](C)[C@@H]1NC(=O)c2csc(n2)[C@@H]([C@@H](C)CC)NC(=O)c2csc(n2)CNC(=O)[C@H]2N=C1O[C@@H]2C [AERUCYCLAMIDE B]	33.8
CC[C@H](C)[C@@H]1NC(=O)[C@H]2CSC(=N2)[C@@H]([C@@H](C)CC)NC(=O)c2csc(n2)CNC(=O)[C@H]2N=C1O[C@@H]2C [AERUCYCLAMIDE A]	30.5
